Target: T1, c-Met kinase (histidine-tagged c-Met catalytic domain fusion protein) (Homo sapiens, UniProt P08581)
T1 construct: histidine-tagged c-Met catalytic domain fusion protein (Invitrogen, #PV3143) was used for the assay; histidine tag; purchased Invitrogen PV3143
Experiment: In vitro c-Met kinase enzyme assay
Format: biochemical
Conditions: poly Glu-Tyr phosphorylation, 5 μM ATP, 25 minutes at 30° C.; read-out: IC50 for the inhibition of c-Met kinase
Experimental: Compounds were screened in vitro for their ability to inhibit c-Met kinase activity. The IC50 values of compounds for the inhibition of c-Met kinase were determined as described in the literature with some modifications (Wang, X. et al, Mol. Cancer. Ther. 2003, 2(11):1085-1092; Calic, M. et al., Croatica Chemical ACTA. 2005, 78(3):367-374). Briefly, histidine-tagged c-Met catalytic domain fusion protein (Invitrogen, #PV3143) was used for the assay. IC50 measurements were based on the degree of phosphorylation of poly Glu-Tyr (Sigma-Aldrich, #PO275) that was coated (0.01 mg/per well) on 96-well microplates (R&D systems, #DY990). The reaction was carried out in a 50 μL solution containing 50 mM HEPES (pH 7.5), 10 mM MnCl2, 10 mM MgCl2, 0.5 mM DTT, 100 μM Na3VO4, 5 μM ATP (Cell Signaling Technology, #9804) and serial dilutions of individual compounds. The reaction lasted for 25 minutes at 30° C. After the reaction was completed, the contents of the plates was discarded. […] The optical density was measured immediately using a microplate reader at 450 nm with wavelength correction at 540 nm. IC50 values were calculated with the GraphPad Prism software. The linear range (i.e., the time period over which the rate remained equivalent to the initial rate) was determined for the kinase and IC50 determinations were performed within this range. […]

T1 sequence (P08581 1078-1345 limits assumed): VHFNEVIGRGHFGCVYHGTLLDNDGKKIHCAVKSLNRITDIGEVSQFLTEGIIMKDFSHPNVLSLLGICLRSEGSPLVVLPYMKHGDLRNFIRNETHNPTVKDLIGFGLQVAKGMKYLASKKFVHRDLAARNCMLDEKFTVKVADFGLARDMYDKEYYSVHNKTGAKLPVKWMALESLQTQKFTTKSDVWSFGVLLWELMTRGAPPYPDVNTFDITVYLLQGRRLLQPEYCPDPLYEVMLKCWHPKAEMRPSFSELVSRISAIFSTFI

COc1ccc(C2(c3nnc4ncc(-c5ccccc5)nn34)CC2)cc1 [Example 26, 3-[1-(4-Methoxyphenyl)cyclopropyl]-6-phenyl[1,2,4]triazolo[4,3-b][1,2,4]triazine]
IC50: 12.9 nM

From patent US8143251B2, “Triazolotriazines as kinase inhibitors” (Incyte Corporation, priority 2006, dated 2012)
